The subject of assay [1] is reversed canal sac of jejunum. Kind of assay: Calcium absorption in reversed canal sac, jejunum. It is filed as cell-based, Wister rats. How it is done: (§1) Experiment 1 confirmed that cyclic tetrasaccharide promotes mineral absorption in alimentary canal of rat concretely in intestinum ileum or its upper alimentary canal. The following experiment was carried out in order to determine a part of alimentary canal, cyclic tetrasaccharide acts on to promote mineral absorption. Twenty heads of Wister rats (nine week aged male, commercialized by Charlesriver Corporation, Kanagawa, Japan) were bred for three days with a usual solid feed for rats. Under the anesthetization with ether, alimentary canal was taken out from each rat which had been bled from a jugular vein and treated by abdominal operation. Each alimentary canal was divided into jejunum, intestinum ileum and colon/rectum and washed with physiological saline to remove the content. The resulting jejunum specimen, intestinum ileum specimen or colon/rectum specimen was cut off to prepare each midsection sized with about 10 cm in length. The resulting midsection of each specimen was reversed using a glass rod and immersed in a physiological saline babbled with gas consisting of 95% oxygen and 5% carbon dioxide. The resultant was cut into pieces sized with 5 cm in length and each piece was tied with a suture thread at both ends to prepare a reversed canal sac, and injected with about 0.5 ml of an internal sac solution containing 30 mM Tris-HCl buffer (pH7.4), 125 mM sodium chloride, 4 mM potassium chloride, 10 mM glucose and 1.25 mM calcium chloride (dihydrate) with a syringe and weighed. The resulting sac was immersed in an external sac solution (being bubbled with the gas consisting of 95% oxygen and 5% carbon dioxide) containing 50 mM, 100 mM or 200 mM of the same cyclic tetrasaccharide to Experiment 1 in the above solution containing 30 mM Tris-HCl buffer (pH7.4), 125 mM sodium chloride, 4 mM potassium chloride, 10 mM glucose and 1.25 mM calcium chloride (dihydrate). At 15 or 30 minutes after the immersion, the reversed canal sac was taken out from the solution and washed with distilled water. The internal sac solution was collected from the resulting sac and admixed with distilled water to give a final volume of 25 ml. The resulting solution was subjected to a calorimetric measurement of calcium content using “CALCIUM TEST C WAKO™” (commercialized by Wako Pure Chemicals Corporation, Osaka, Japan). As a negative control, an external sac solution without saccharides. As a positive control, an external sac solution containing 200 mM maltitol, reported to have the effect on promoting mineral absorption though intestinal canal, instead of cyclic tetrasaccharide were prepared and carried out in the same manner. Speed of calcium absorption (nmol/min·cm^2) and its relative values defining the value of negative control as 100 were calculated.

The subject of assay [2] is reversed canal sac of intestinum ileum. Kind of assay: Calcium absorption in reversed canal sac, intestinum ileum. It is filed as cell-based, Wister rats. The method, then: as §1
The mark [3] stands for this setting: 50 mM saccharide in external sac solution.
The mark [4] stands for this setting: 100 mM saccharide in external sac solution.
Setting [5] is: 200 mM saccharide in external sac solution.

Here are results for one compound from patent US20080113938A1, “ACCELERATOR FOR MINERAL ABSORPTION AND USE THEREOF” (KABUSHIKI KAISHA HAYASHIBARA SEIBUTSU KAGAKU KENKYUJO, priority 2003, published 2008).

Regarding `OC[C@H]1O[C@@H]2OC[C@H]3O[C@H](O[C@@H]4[C@@H](O)[C@@H](OC[C@H]5O[C@H](O[C@H]([C@H]2O)[C@@H]1O)[C@H](O)[C@@H](O)[C@@H]5O)O[C@H](CO)[C@H]4O)[C@H](O)[C@@H](O)[C@@H]3O` [cyclic tetrasaccharide, cyclo{>6)-α-D-glucopyranosyl-(1>3)-α-D-glucopyranosyl-(1>6)-α-D-glucopyranosyl-(1>3)-α-D-glucopyranosyl-(1>}], the “Absorption speed of calcium in alimentary canal sac, Jejunum” value in assay [1] (setting [3]) is 26.5 *※ nmol/min · cm^2; in assay [1] (setting [4]), 37.6 *※ nmol/min · cm^2; in assay [1] (setting [5]) it was 39.0 *※ nmol/min · cm^2. In addition, the “Relative value of calcium absorption speed (control = 100), Jejunum” value in assay [1] (setting [3]) was “(124)”; in assay [1] (setting [4]), “(176)”; in assay [1] (setting [5]) it was “(183)”. Besides, the “promotion of calcium absorption in jejunum” value in assay [1] (reversed sac) is on record as “strongly promoted”. The results for the “Absorption speed of calcium in alimentary canal sac, Intestinum ileum” value in assay [2] (setting [3]), in assay [2] (setting [4]) and in assay [2] (setting [5]) were 33.6 *※ nmol/min · cm^2, 46.0 *※ nmol/min · cm^2 and 52.9 *※ nmol/min · cm^2, respectively. The “Relative value of calcium absorption speed (control = 100), Intestinum ileum” value is “(124)” in assay [2] (setting [3]), “(167)” in assay [2] (setting [4]) and “(195)” in assay [2] (setting [5]). Besides, in assay [2] (reversed sac), the “promotion of calcium absorption in intestinum ileum” value is “strongly promoted”.
